Experimental data: US20040191833A1, “Selective activation of cellular activities mediated through a common toll-like receptor” (3M Innovative Properties Company, priority 2003, published 2004)

How the values were obtained:
human TLR7 [1] = biological target: T1, human TLR7 (Homo sapiens, UniProt Q9NYK1); assay: TLR7 activation in HEK293 cells (NF-kB-luc luciferase reporter, H-TLR7/H-vector); format: cell-based; details: final IRM concentration 10 μM, 16 hours, normalized to the DMSO without compound control
T1 construct: expressed in transfected cells; host or cells: Namalwa cells (ATCC CRL-1432), pCI-neo vector, electroporated, G418 selected, with pIFN-α1-luc reporter
T1 sequence (Q9NYK1 27-1049): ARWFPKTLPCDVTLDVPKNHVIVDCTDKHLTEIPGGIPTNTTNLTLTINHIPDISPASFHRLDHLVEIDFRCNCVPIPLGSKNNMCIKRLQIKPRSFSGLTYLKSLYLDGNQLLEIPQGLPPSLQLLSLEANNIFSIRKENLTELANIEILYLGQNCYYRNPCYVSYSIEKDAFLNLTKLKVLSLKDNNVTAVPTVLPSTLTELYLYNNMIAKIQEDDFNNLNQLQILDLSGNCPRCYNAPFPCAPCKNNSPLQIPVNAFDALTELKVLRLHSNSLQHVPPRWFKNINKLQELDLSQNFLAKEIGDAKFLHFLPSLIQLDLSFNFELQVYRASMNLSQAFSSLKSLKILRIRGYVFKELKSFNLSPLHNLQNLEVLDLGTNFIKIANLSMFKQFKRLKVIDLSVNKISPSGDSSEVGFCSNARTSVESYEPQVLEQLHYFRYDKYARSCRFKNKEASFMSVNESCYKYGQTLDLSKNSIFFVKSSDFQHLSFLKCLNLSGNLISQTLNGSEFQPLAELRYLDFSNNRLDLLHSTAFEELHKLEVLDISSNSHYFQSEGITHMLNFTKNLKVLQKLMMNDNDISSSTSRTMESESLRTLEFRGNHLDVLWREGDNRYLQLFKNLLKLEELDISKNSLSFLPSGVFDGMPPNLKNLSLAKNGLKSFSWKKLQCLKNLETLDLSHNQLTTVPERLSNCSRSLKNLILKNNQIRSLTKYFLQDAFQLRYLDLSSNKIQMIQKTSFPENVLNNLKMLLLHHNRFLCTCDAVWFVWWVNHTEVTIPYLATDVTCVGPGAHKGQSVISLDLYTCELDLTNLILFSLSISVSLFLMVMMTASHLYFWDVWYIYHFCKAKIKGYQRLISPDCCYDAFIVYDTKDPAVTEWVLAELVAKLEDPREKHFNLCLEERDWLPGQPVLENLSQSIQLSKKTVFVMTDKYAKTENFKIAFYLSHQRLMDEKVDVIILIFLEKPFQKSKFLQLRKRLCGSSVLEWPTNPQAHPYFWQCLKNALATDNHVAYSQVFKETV
Method: (§1) In one embodiment, exemplified in Example 1, selective modulation of TLR7-mediated NF-κB activation and TLR7-mediated IFN-α1 induction were assayed. NF-κB activation was measured in genetically modified HEK293 cells (H-TLR7) by detecting TLR7-mediated NF-κB-dependent transcription of a luciferase reporter. IFN-α1 induction was measured in genetically modified Namalwa cells (N-TLR7) by detecting TLR-mediated IFN-α1-induced transcription of a luciferase reporter. Results are shown in Table 2 and are expressed as the fold increase in TLR7-mediated luciferase signal—(H-TLR7/H-vector) and (N-TLR7/N-vector), respectively—normalized to a control in which the cells were treated with vehicle that contained no IRM compound. In this assay, a compound was considered to induce the TLR7-mediated cellular activity if the compound generated at least a two-fold increase in the luciferase signal compared to the vector control.
HEK293 medium was prepared from 90% Minimum Essential Medium (MEM) with 2 mM L-glutamine and Earle's Balanced Salt Solution (Invitrogen Corp., Rockville, Md.) adjusted to contain 1.5 g/L sodium bicarbonate, 0.1 mM non-essential amino acids, and 1.0 mM sodium pyruvate; 10% heat-inactivated fetal calf serum. HEK293 cells were cultured by incubating cells in HEK293 medium overnight at 37° C, 8% CO2.
Twenty-four hours before transfection, HEK293 cells were adhered to a 10 cm dish (Corning 430167, Corning Inc., Corning, N.Y.) at 37° C., 8% CO2. The cells were co-transfected with (1) pIRES (BD Biosciences Clontech, Palo Alto, Calif.) either (a) unmodified (H-vector), or (b) containing an expressible human TLR7 gene (H-TLR7), and (2) NF-kB-luc reporter (Stratagene, La Jolla, Calif.) in a 10:1 ratio with Fugene 6 transfection reagent (Roche Diagnostics Corp., Indianapolis, Ind.) following the manufacturer's instructions. The plates were incubated for 24 hours following transfection and then selected in G-418 (400 μg/mL) for two weeks. The G-418-resistant cells containing either the expressible TLR7 gene or the empty vector were expanded in HEK293 medium supplemented with G-418 for stimulation experiments.
The transfected cells were plated in white opaque 96 well plates (Costar 3917, Corning Inc., Corning, N.Y.) at a concentration of 5×10^4 cells per well in 100 μL of HEK293 media and incubated at 37° C., 8% CO2 for 4 hours. The cells were stimulated with 1 μL of IRM compounds at 1 mM in DMSO (final IRM concentration of 10 μM) or 1 μL DMSO as a control. The plates were then incubated an additional 16 hours at 37° C., 5% CO2. The luciferase signal was read using the LucLite kit (Packard Instrument Co., Meriden, Conn.). Luminescence was measured on an LMAX luminometer (Molecular Devices Corp., Sunnyvale, Calif.).
(§2) The data are expressed as fold increase in TLR7-mediated luciferase signal—(H-TLR7/H-vector) and (N-TLR7/N-vector), respectively—normalized to the DMSO without compound control.

human TLR7 [2] = biological target: T1, human TLR7; assay: TLR7 activation in Namalwa cells (IFN-α1 promoter luciferase reporter, N-TLR7/N-vector); format: cell-based; details: final IRM concentration 10 μM, 18 hours, normalized to the DMSO without compound control
Method: as §1
Unless otherwise indicated, all incubations were performed at 37° C. with 5% CO2 at 98% humidity.
Culture medium was prepared from complete RPMI 1640 medium (BioSource International, Inc., Camarillo, Calif.). Fetal bovine serum (Atlas Biologicals, Inc., Ft. Collins, Colo.) was added to a final concentration of 7.5% (vol/vol); L-glutamine (BioSource International, Inc.) was added to 5 mM; and sodium pyruvate (BioSource International, Inc.) was added to 1 mM.
Namalwa cells were grown by incubation in culture medium overnight. Cells were harvested by centrifugation in a tabletop centrifuge (1200 RPM for 5 minutes), and then resuspended in phosphate buffered sucrose to a concentration of 1.3×10^7 cells/mL.
For each transfection, a 750 μL aliquot of the cell suspension was placed in an electroporation cuvette with 4 mm gaps. Each aliquot received transfection DNA: 10 μg of pGL3-Enhancing vector (Promega Corp., Madison, Wis.) containing the human IFN-α1 promoter cloned into the BglII site (pIFN-α1-luc), and 10 μg of pCI-neo mammalian expression vector (Promega Corp.) either (1) unmodified (N-vector) or (2) containing an expressible human TLR7 gene (N-TLR7). The cell and vector mixtures were incubated at room temperature for 5 minutes. The cells were electroporated using a BioRad Gene Pulser (BioRad Laboratories, Hercules, Calif.) set to at 500 μF capacitance and […], then incubated at room temperature for 5 minutes.
The electroporated cells were suspended in 10 mL of culture medium and incubated overnight. Dead cells and debris were removed after 24 hours using a MACS Dead Cell Removal kit (Miltenyi Biotec, Auburn, Calif.). Cells were resuspended in 10 mL of culture medium and incubated for an additional 24 hours.
Transfected cells were selected by adding G418 (Promega Corp., Madison, Wisc.) to a final concentration of 1 mg/mL and incubating the cells for seven days.
The selected transfected cells were counted and resuspended to a concentration of 1×10^6 cell per mL in culture medium. 100 μl aliquots of cells were placed in the wells of a white-walled, white-bottomed 96-well plate (Corning, Inc. Corning, N.Y.). 1.0 μL of an IRM compound from Table 1 (prepared at 1 mM in 100% DMSO) was added to some cell aliquots so that the final concentration of IRM compound was 10 μM. As a positive control, some cell aliquots were incubated with Sendai virus instead of IRM compound. As a negative control, some cell aliquots were incubated with DMSO without IRM compound. In all cases, the cells were incubated for 18 hours.
The plates were equilibrated to room temperature before 1 volume of reconstituted LucLight Plus (Packard Instruments, Meriden, Conn.) was added to each aliquot of cells. Each well of the plate was read on an LJL Analyst (LJL Biosystems, Inc., Sunnyvale, Calif.) set with a 5 minute dark adapt.
as §2

Compound	H-TLR7: fold increase in TLR7-mediated luciferase signal (H-TLR7/H-vector), NF-κB-dependent reporter (human TLR7 [1])	N-TLR7: fold increase in TLR7-mediated luciferase signal (N-TLR7/N-vector), IFN-α1 promoter reporter (human TLR7 [2])
CCOCc1nc2c(N)nc3ccccc3c2n1CCC(C)C [IRM9, 2-ethoxymethyl-1-(3-methylbutyl)-1H-imidazo[4,5-c]quinolin-4-amine]	0.7 fold	2.6 fold
CCC(C)NC(=S)NCCn1c(CCOC)nc2c(N)nc3ccccc3c21 (centres unmarked) [IRM24, N-{2-[4-amino-2-(2-methoxyethyl)-1H-imidazo[4,5-c]quinolin-1-yl]ethyl}-N′-sec-butylthiourea]	7.9 fold	3.2 fold
COCCc1nc2c(N)nc3ccccc3c2n1CCCNS(=O)(=O)c1ccccc1 [IRM7, N-{3-[4-amino-2-(2-methoxyethyl)-1H-imidazo[4,5-c]-1-yl]propyl}benzenesulfonamide]	4.7 fold	1.6 fold
Nc1nc2ccccc2c2c1ncn2CCOCCCc1cncnc1 [IRM12, 1-{2-[3-(5-pyrimidinyl)propoxy]ethyl}-1H-imidazo[4,5-c]quinolin-4-amine]	0.6 fold	2.6 fold
COCCc1nc2c(N)nc3ccccc3c2n1CC(C)(C)CNC(=O)Nc1ccccc1 [IRM4, N-{3-[4-amino-2-(2-methoxyethyl)-1H-imidazo[4,5-c]quinolin-1-yl]-2,2-dimethylpropyl}-N′-phenylurea]	15.0 fold	1.6 fold
CCc1nc2c(N)nc3ccccc3c2n1CCOCCNC(=O)Nc1ccccc1 [IRM20, N-{2-[2-(4-amino-2-ethyl-1H-imidazo[4,5-c]quinolin-1-yl)ethoxy]ethyl}-N′-phenylurea]	0.8 fold	3.7 fold
CCCCc1nc2c(N)nc3ncccc3c2n1CC(C)C [IRM10, 2-butyl-1-(2-methylpropyl)-1H-imidazo[4,5-c][1,8]naphthyridin-4-amine]	1.1 fold	4.4 fold
Nc1nc2ccccc2c2c1ncn2CCOCC#Cc1csc(C=O)c1 [IRM1, 4-{3-[2-(4-amino-1H-imidazo[4,5-c]quinolin-1-yl)ethoxy]-1-propynyl}-2-thiophenecarboxaldehyde]	13.2 fold	1.6 fold

Results, then the molecule that gave them:

H-TLR7: fold increase in TLR7-mediated luciferase signal (H-TLR7/H-vector), NF-κB-dependent reporter (human TLR7 [1])	N-TLR7: fold increase in TLR7-mediated luciferase signal (N-TLR7/N-vector), IFN-α1 promoter reporter (human TLR7 [2])	Compound
0.9 fold	3.3 fold	CCCCCc1nc2c(N)nc3ccccc3c2n1CCCCNS(C)(=O)=O [IRM14, N-[4-(4-amino-2-pentyl-1H-imidazo[4,5-c]quinolin-1-yl)butyl]methanesulfonamide]
0.5 fold	3.3 fold	CCOCc1nc2c(N)nc3ccccc3c2n1CCCCNC(=O)N1CCOCC1 [IRM18]
4.2 fold	1.9 fold	CCCCc1nc2c(N)nc3ccccc3c2n1CCCNC(=O)c1cc2ccccc2cn1 [IRM3, N-[3-(4-amino-2-butyl-1H-imidazo[4,5-c]quinolin-1-yl)propyl]isoquinoline-3-carboxamide]
7.1 fold	1.4 fold	CCCCSCCCCn1c(CC)nc2c(N)nc3ccccc3c21 [IRM6, 1-[4-(butylthio)butyl]-2-ethyl-1H-imidazo[4,5-c]quinolin-4-amine]
1.0 fold	2.6 fold	CCCCc1nc2c(N)nc(C)c(C)c2n1CCCCNC(=O)c1ccccc1 [IRM13, N-[4-(4-amino-2-butyl-6,7-dimethyl-1H-imidazo[4,5-c]pyridin-1-yl)butyl]benzamide]
